Experimental data reported in patent US12258328B2, “6-membered heteroaryl-containing aminopyridine compounds as EGFR inhibitors” (YUHAN CORPORATION, priority 2021, dated 2025).
Where two headings read alike, the source gives them in different places.

Experiments:
EGFR del19/T790M/C797S = EGFR del19/T790M/C797S (Homo sapiens, UniProt P00533, C797S/DEL746-750/T790M); assay: Biochemical EGFR kinase assay (Lance Ultra TR-FRET), triple mutant del19/T790M/C797S
In short: (§1)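 In this biochemical assay, phosphorylation after a one-hour room-temperature reaction was detected with europium-labelled anti-phosphopeptide antibody at 2 nM final concentration.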

EGFR wildtype = EGFR wildtype (Homo sapiens, UniProt P00533); assay: Biochemical EGFR kinase assay (Lance Ultra TR-FRET), wildtype
In short: as §1

EGFR L858R/C797S = EGFR L858R/C797S (Homo sapiens, UniProt P00533, C797S/L858R); assay: Biochemical EGFR kinase assay (Lance Ultra TR-FRET), double mutant L858R/C797S
In short: as §1

EGFR L858R/T790M/C797S = EGFR L858R/T790M/C797S (Homo sapiens, UniProt P00533, C797S/L858R/T790M); assay: Biochemical EGFR kinase assay (Lance Ultra TR-FRET), triple mutant L858R/T790M/C797S
In short: as §1

EGFR del19/C797S = EGFR del19/C797S (Homo sapiens, UniProt P00533, C797S/DEL746-750); assay: Biochemical EGFR kinase assay (Lance Ultra TR-FRET), double mutant del19/C797S
In short: as §1

[1] = IC50 del19/T790M/C797S (nM) 100 μM ATP, 100 μM ATP
[2] = Km ATP, read-out: IC50 del19/T790M/C797S (nM) Km ATP
[3] = IC50 WT (nM) 100 μM ATP, 100 μM ATP
[4] = Km ATP, read-out: IC50 WT (nM) Km ATP
[5] = IC50 L858R/C797S (nM) 100 μM ATP, 100 μM ATP
[6] = Km ATP, read-out: IC50 L858R/C797S (nM) Km ATP
[7] = IC50 L858R/T790M/C797S (nM) 100 μM ATP, 100 μM ATP
[8] = Km ATP, read-out: IC50 L858R/T790M/C797S (nM) Km ATP
[9] = IC50 del19/C797S (nM) 100 μM ATP, 100 μM ATP
[10] = Km ATP, read-out: IC50 del19/C797S (nM) Km ATP

Sequence of EGFR L858R/T790M/C797S (P00533 25-1210 T790M/C797S/L858R): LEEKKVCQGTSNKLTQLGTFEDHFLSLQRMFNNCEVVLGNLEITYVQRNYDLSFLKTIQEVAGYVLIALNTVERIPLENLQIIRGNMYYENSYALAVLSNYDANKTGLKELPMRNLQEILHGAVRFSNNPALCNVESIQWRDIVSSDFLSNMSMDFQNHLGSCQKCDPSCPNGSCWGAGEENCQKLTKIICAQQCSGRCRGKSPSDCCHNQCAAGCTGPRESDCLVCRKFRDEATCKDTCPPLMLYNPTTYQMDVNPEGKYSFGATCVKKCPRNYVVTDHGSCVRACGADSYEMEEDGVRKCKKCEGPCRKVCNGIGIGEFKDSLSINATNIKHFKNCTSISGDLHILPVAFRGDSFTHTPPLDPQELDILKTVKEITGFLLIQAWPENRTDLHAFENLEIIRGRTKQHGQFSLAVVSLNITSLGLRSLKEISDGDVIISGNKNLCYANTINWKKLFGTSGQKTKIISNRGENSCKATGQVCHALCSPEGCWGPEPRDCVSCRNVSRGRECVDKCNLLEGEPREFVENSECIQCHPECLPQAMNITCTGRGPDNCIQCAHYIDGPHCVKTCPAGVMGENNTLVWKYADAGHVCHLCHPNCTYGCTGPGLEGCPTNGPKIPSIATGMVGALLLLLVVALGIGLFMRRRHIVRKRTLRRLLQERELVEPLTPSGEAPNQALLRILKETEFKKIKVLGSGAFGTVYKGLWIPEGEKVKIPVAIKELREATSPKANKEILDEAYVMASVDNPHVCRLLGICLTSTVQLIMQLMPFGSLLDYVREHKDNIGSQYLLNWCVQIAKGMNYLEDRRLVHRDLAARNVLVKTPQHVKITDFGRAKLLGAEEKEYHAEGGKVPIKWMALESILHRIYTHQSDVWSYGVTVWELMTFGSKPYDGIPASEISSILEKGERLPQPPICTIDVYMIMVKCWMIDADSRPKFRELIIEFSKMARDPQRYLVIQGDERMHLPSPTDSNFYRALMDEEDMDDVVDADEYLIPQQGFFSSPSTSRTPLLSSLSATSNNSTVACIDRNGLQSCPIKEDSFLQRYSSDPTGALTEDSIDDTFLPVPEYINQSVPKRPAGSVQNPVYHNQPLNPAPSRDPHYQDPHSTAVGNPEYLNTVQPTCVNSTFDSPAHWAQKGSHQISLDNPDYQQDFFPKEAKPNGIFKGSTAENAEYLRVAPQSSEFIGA
Sequence of EGFR wildtype (P00533 25-1210): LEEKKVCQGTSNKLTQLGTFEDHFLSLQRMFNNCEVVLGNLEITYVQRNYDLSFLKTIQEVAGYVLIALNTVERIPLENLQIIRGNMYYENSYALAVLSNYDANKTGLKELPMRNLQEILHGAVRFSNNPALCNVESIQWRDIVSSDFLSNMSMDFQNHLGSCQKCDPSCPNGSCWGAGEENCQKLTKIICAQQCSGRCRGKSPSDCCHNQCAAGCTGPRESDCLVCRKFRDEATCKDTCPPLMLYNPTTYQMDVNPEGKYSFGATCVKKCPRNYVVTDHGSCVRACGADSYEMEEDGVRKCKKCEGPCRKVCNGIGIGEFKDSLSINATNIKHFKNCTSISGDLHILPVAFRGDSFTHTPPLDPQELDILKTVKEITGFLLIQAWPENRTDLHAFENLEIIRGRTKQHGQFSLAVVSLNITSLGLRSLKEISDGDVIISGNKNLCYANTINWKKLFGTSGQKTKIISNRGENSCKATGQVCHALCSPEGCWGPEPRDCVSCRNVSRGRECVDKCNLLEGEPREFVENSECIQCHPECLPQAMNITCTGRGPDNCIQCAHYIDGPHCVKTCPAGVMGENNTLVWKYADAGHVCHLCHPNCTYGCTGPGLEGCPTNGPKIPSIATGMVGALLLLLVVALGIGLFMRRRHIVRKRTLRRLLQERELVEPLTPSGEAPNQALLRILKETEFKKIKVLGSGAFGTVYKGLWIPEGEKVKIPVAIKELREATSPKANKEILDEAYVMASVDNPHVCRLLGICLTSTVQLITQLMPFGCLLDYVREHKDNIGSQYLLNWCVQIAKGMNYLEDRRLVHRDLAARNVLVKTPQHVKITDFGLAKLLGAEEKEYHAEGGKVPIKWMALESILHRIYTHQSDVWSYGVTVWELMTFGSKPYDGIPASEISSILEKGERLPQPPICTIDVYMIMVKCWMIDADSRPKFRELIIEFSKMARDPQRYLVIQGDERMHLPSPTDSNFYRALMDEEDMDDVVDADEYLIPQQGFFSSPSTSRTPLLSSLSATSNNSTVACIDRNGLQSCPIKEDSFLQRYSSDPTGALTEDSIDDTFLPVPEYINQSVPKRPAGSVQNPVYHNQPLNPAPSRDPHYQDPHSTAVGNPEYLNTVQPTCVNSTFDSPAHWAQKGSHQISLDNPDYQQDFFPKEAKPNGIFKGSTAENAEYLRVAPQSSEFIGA
Sequence of EGFR del19/C797S (P00533 with tags, fused parts or gaps DEL746-750/C797S): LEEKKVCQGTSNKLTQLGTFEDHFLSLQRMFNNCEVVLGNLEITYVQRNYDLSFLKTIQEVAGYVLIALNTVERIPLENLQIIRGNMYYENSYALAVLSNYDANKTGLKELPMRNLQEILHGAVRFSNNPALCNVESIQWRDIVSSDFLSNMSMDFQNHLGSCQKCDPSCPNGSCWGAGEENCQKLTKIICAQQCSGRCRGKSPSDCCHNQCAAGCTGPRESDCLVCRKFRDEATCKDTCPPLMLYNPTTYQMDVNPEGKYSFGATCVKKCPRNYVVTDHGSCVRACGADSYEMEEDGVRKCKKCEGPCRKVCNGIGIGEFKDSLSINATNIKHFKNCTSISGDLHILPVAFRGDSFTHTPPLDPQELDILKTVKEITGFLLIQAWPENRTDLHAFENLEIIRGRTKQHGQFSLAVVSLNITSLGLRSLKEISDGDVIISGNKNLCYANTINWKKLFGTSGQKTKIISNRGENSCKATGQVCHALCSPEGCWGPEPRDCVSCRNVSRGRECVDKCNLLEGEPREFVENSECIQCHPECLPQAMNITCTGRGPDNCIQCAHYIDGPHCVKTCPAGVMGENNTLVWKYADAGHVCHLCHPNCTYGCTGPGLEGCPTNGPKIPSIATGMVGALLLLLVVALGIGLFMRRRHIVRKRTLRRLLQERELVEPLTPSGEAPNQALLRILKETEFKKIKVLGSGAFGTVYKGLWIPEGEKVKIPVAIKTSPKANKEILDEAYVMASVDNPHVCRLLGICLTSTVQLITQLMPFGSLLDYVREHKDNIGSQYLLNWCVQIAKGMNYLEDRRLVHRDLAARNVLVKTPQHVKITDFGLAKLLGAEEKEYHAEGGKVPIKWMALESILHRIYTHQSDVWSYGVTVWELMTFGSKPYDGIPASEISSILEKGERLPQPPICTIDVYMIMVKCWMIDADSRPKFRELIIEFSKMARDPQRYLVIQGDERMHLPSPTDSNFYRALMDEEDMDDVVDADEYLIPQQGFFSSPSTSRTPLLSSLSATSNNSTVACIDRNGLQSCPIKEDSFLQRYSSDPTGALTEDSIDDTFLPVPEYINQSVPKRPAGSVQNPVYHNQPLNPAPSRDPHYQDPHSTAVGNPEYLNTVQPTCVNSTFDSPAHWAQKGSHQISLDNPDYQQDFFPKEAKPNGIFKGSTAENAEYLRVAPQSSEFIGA
Sequence of EGFR del19/T790M/C797S (P00533 with tags, fused parts or gaps DEL746-750/T790M/C797S): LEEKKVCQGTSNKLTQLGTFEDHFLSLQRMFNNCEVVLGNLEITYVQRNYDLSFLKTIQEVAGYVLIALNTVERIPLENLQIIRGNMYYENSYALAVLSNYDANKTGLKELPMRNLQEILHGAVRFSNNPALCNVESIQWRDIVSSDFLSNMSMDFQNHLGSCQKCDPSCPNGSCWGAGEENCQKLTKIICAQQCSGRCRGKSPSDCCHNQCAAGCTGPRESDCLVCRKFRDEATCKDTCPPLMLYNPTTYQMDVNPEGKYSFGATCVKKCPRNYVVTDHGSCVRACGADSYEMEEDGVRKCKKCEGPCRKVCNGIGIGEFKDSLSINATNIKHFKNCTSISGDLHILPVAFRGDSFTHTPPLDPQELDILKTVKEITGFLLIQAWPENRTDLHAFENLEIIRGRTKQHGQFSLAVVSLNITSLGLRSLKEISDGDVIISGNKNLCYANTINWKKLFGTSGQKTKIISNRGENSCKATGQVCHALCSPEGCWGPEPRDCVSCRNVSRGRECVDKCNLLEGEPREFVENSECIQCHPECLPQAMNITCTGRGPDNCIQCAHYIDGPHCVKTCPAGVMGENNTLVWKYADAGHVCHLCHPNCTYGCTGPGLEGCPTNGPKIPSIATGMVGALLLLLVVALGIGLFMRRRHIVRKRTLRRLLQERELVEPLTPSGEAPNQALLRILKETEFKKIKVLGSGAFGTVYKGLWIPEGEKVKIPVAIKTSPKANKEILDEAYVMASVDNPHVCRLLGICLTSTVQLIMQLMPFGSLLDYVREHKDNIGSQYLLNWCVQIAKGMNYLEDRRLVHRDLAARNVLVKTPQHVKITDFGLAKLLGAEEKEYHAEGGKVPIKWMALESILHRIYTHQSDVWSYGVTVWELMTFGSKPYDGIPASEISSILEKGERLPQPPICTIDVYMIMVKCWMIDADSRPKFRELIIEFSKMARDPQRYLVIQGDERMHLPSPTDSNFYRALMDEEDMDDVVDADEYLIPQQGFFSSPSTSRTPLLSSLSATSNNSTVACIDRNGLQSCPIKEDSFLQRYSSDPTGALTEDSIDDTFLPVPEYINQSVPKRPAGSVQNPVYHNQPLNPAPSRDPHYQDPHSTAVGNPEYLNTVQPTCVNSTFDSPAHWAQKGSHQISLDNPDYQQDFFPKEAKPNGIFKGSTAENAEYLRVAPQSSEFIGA

Compound | IC50 (EGFR del19/T790M/C797S; [1]) [nM] | IC50 (EGFR del19/T790M/C797S; [2]) [nM] | IC50 (EGFR wildtype; [3]) [nM] | IC50 (EGFR wildtype; [4]) [nM] | IC50 (EGFR L858R/C797S; [5]) [nM] | IC50 (EGFR L858R/C797S; [6]) [nM] | IC50 (EGFR L858R/T790M/C797S; [7]) [nM] | IC50 (EGFR L858R/T790M/C797S; [8]) [nM] | IC50 (EGFR del19/C797S; [9]) [nM] | IC50 (EGFR del19/C797S; [10]) [nM]
CC(C)(O)[C@H]1CC[C@@H](Nc2cc(Nc3ccnc(-c4cnn(S(=O)(=O)C5CC5)c4)n3)ncc2-c2cc(CN3CCC(F)(F)CC3)ccn2)CC1 [Example 114, 2-((1s,4s)-4-((6′-((2-(1-(Cyclopropylsulfonyl)-1H-pyrazol-4-yl)pyrimidin-4-yl)amino)-4-((4,4-difluoropiperidin-1-yl)methyl)-[2,3′-bipyridin]-4′-yl)amino)cyclohexyl)propan-2-ol] | 11.2 | 8.5 | 653 | 46.8 | 33.7 | 15.7 | 4.5 | 2.8 | 29.9 | 27.1
CN(C)CCOc1cnc(-c2cnc(Nc3ccnc(-c4cnn(S(=O)(=O)C5CC5)c4)n3)cc2NC2CCC(C)(O)CC2)cn1 (centres unmarked) [Example 115, (1s,4s)-4-((2-((2-(1-(Cyclopropylsulfonyl)-1H-pyrazol-4-yl)pyrimidin-4-yl)amino)-5-(5-(2-(dimethylamino)ethoxy)pyrazin-2-yl)pyridin-4-yl)amino)-1-methylcyclohexan-1-ol] | 0.4 | 0.1 | > 10000 | 1.8 | 0.5 | 0.1 | 0.1 | 0.1 | 0.8 | 0.4
CN(C)CCOc1cnc(-c2cnc(Nc3ccnc(-c4cnn(S(=O)(=O)C5CC5)c4)n3)cc2N[C@H]2CC[C@@H](CO)CC2)cn1 [Example 116, ((1s,4s)-4-((2-((2-(1-(Cyclopropylsulfonyl)-1H-pyrazol-4-yl)pyrimidin-4-yl)amino)-5-(5-(2-(dimethylamino)ethoxy)pyrazin-2-yl)pyridin-4-yl)amino)cyclohexyl)methanol] | 0.1 | 0.1 | 384 | 0.4 | 0.3 | 0.1 | 0.04 | 0.04 | 0.1 | 0.1
CN(C)CCOc1cnc(-c2cnc(Nc3ccnc(-c4cnn(S(=O)(=O)C5CC5)c4)n3)cc2N[C@H]2CC[C@@H](C(C)(C)O)CC2)cn1 [Example 117, 2-((1s,4s)-4-((2-((2-(1-(Cyclopropylsulfonyl)-1H-pyrazol-4-yl)pyrimidin-4-yl)amino)-5-(5-(2-(dimethylamino)ethoxy)pyrazin-2-yl)pyridin-4-yl)amino)cyclohexyl)propan-2-ol] | 0.4 | 0.2 | 6500 | 1.9 | 0.5 | 0.2 | 0.1 | 0.1 | 0.5 | 0.3
CC(C)(O)c1cnc(-c2cnc(Nc3ccnc(-c4cnn(S(=O)(=O)C5CC5)c4)n3)cc2N[C@H]2CC[C@@](C)(O)CC2)cn1 [Example 118, (1s,4s)-4-((2-((2-(1-(Cyclopropylsulfonyl)-1H-pyrazol-4-yl)pyrimidin-4-yl)amino)-5-(5-(2-hydroxypropan-2-yl)pyrazin-2-yl)pyridin-4-yl)amino)-1-methylcyclohexan-1-ol] | 0.04 | 0.1 | 400 |  | 0.7 | 0.05 | 0.2 | 0.1 | 0.3 | 0.1
CC(C)(O)c1cnc(-c2cnc(Nc3ccnc(-c4cnn(S(=O)(=O)C5CC5)c4)n3)cc2N[C@H]2CC[C@@H](CO)CC2)cn1 [Example 119, 2-(5-(6-((2-(1-(Cyclopropylsulfonyl)-1H-pyrazol-4-yl)pyrimidin-4-yl)amino)-4-(((1s,4s)-4-(hydroxymethyl)cyclohexyl)amino)pyridin-3-yl)pyrazin-2-yl)propan-2-ol] | 0.1 | 0.1 | 108 | 1 | 0.3 | 0.03 | 0.2 | 0.1 | 0.2 | 0.1
CC(C)(O)c1cnc(-c2cnc(Nc3ccnc(-c4cnn(S(=O)(=O)C5CC5)c4)n3)cc2N[C@H]2CC[C@@H](C(C)(C)O)CC2)cn1 [Example 120, 2-(5-(6-((2-(1-(Cyclopropylsulfonyl)-1H-pyrazol-4-yl)pyrimidin-4-yl)amino)-4-(((1s,4s)-4-(2-hydroxypropan-2-yl)cyclohexyl)amino)pyridin-3-yl)pyrazin-2-yl)propan-2-ol] | 0.2 | 0.2 | 968 | 4.3 |  | 0.1 | 0.4 | 0.1 | 0.7 | 0.5
CC(C)Nc1cc(Nc2ccnc(-c3cnn(S(=O)(=O)C4CC4)c3)n2)ncc1-c1cnc(C(C)(C)O)cn1 [Example 121, 2-(5-(6-((2-(1-(Cyclopropylsulfonyl)-1H-pyrazol-4-yl)pyrimidin-4-yl)amino)-4-(isopropylamino)pyridin-3-yl)pyrazin-2-yl)propan-2-ol] |  | 0.5 |  | 22.6 |  | 2.9 |  | 0.2 |  | 4.6
CC(C)Nc1cc(Nc2ccnc(-c3cnn(S(=O)(=O)C4CC4)c3)n2)ncc1-c1cnc(OCCN(C)C)cn1 [Example 122, N^2-(2-(1-(Cyclopropylsulfonyl)-1H-pyrazol-4-yl)pyrimidin-4-yl)-5-(5-(2-(dimethylamino)ethoxy)pyrazin-2-yl)-N^4-isopropylpyridine-2,4-diamine] |  | 0.3 |  | 7.4 |  | 4.3 |  | 0.1 |  | 9.7
O=S(=O)(C1CC1)n1cc(-c2nccc(Nc3cc(N[C@H]4CC[C@@H](F)CC4)c(-c4ccc(N5CCOCC5)cn4)cn3)n2)cn1 [Example 123, N^6′-(2-(1-(Cyclopropylsulfonyl)-1H-pyrazol-4-yl)pyrimidin-4-yl)-N^4′-((1s,4s)-4-fluorocyclohexyl)-5-morpholino-[2,3′-bipyridine]-4′,6′-diamine] |  | 2.6 |  | 22 |  | 2.3 |  | 0.7 |  | 28.6
CC(C)Nc1cc(Nc2ccnc(-c3cnn(S(=O)(=O)C4CC4)c3)n2)ncc1-c1ccc(N2CCOCC2)cn1 [Example 124, N^6′-(2-(1-(Cyclopropylsulfonyl)-1H-pyrazol-4-yl)pyrimidin-4-yl)-N^4′-isopropyl-5-morpholino-[2,3′-bipyridine]-4′,6′-diamine] |  | 0.3 |  | 12.7 |  | 0.4 |  | 0.4 |  | 3.3
CC(C)Nc1cc(Nc2ccnc(-c3cnn(S(=O)(=O)C4CC4)c3)n2)ncc1-c1ccc(CN2CCOCC2)cn1 [Example 125, N^6′-(2-(1-(Cyclopropylsulfonyl)-1H-pyrazol-4-yl)pyrimidin-4-yl)-N^4′-isopropyl-5-(morpholinomethyl)-[2,3′-bipyridine]-4′,6′-diamine] |  | 0.7 |  | 44.8 |  | 12.1 |  | 0.3 |  | 8.9
O=S(=O)(C1CC1)n1cc(-c2nccc(Nc3cc(N[C@H]4CC[C@@H](F)CC4)c(-c4ccc(CN5CCOCC5)cn4)cn3)n2)cn1 [Example 126, N^6′-(2-(1-(Cyclopropylsulfonyl)-1H-pyrazol-4-yl)pyrimidin-4-yl)-N^4′-((1s,4s)-4-fluorocyclohexyl)-5-(morpholinomethyl)-[2,3′-bipyridine]-4′,6′-diamine] |  | 2.7 |  | 45.7 |  | 12.6 |  | 1.2 |  | 12.1
